In PubChem BioAssay (NCI):
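Each compound was tested at five concentrations against cells in 96-well plates for 48 hours. TGI: concentration producing complete growth inhibition.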

Columns and labels:
Assay in all cases: growth of human tumour cells (NCI), 48 h
[1] = system: DMS 273 small cell lung
[2] = system: NCI-H23 lung
[3] = system: SK-MEL-28 melanoma
[4] = system: CAKI-1 renal
[5] = system: SK-MEL-2 melanoma
[6] = system: OVCAR-4 ovarian
[7] = system: SK-OV-3 ovarian
[8] = system: UO-31 renal
[9] = system: HOP-92 NSCLC
[10] = system: NCI-H522 lung
[11] = system: HCT-15 colon
[12] = system: K-562 leukemia
[13] = system: SR leukemia
[14] = system: U251 CNS
[15] = system: UACC-62 melanoma
[16] = system: HCC-2998 colon
[17] = system: OVCAR-3 ovarian
[18] = system: MALME-3M melanoma
[19] = system: SK-MEL-5 melanoma
[20] = system: M14 melanoma
[21] = system: DLD-1 colon
[22] = system: SN12C renal
[23] = system: TK-10 renal
[24] = system: LXFL 529 NSCLC
[25] = system: COLO 205 colon
[26] = system: IGROV1 ovarian
[27] = system: MOLT-4 leukemia
[28] = system: OVCAR-8 ovarian
[29] = system: SNB-78 CNS
[30] = system: SNB-19 CNS
[31] = system: SW-620 colon
[32] = system: XF 498 CNS
[33] = system: SF-295 CNS
[34] = system: CCRF-CEM leukemia
[35] = system: KM12 colon
[36] = system: KM20L2 colon
[37] = system: RXF 393 renal
[38] = system: OVCAR-5 ovarian
[39] = system: HT29 colon
[40] = system: LOX IMVI melanoma
[41] = system: HCT-116 colon
[42] = system: SF-539 CNS
[43] = system: SF-268 CNS
[44] = system: 786-0 renal
[45] = system: A549 NSCLC
[46] = system: RPMI-8226 leukemia
[47] = system: SNB-75 CNS
[48] = system: EKVX NSCLC
[49] = system: M19-MEL melanoma
[50] = system: NCI-H226 lung
[51] = system: NCI-H460 lung
[52] = system: HOP-62 NSCLC
[53] = system: ACHN renal
[54] = system: DMS 114 small cell lung
[55] = system: UACC-257 melanoma
[56] = system: A498 renal

O=C(N/C(=C\c1ccc(Br)cc1)c1nc2ccccc2[nH]1)c1ccccc1
TGI [1]: 58.9 µM | TGI [2]: 36 µM | TGI [3]: 30.3 µM | TGI [4]: 65.1 µM | TGI [5]: 30.9 µM | TGI [6]: 36.5 µM | TGI [7]: 86.3 µM | TGI [8]: 33.7 µM | TGI [9]: 24.7 µM | TGI [10]: 29.8 µM | TGI [11]: 39.4 µM | TGI [12]: 52.6 µM | TGI [13]: 50.9 µM | TGI [14]: 33.5 µM | TGI [15]: 43.6 µM | TGI [16]: 30.9 µM | TGI [17]: 46.2 µM | TGI [18]: 45.6 µM | TGI [19]: 37 µM | TGI [20]: 32.8 µM | TGI [21]: 59.8 µM | TGI [22]: 32.7 µM | TGI [23]: 84.7 µM | TGI [24]: 30.9 µM | TGI [25]: 41.1 µM | TGI [26]: 66.6 µM | TGI [27]: 67.4 µM | TGI [28]: 40 µM | TGI [29]: 59.6 µM | TGI [30]: 41.6 µM | TGI [31]: 29.6 µM | TGI [32]: 34.2 µM | TGI [33]: 64.5 µM | TGI [34]: 70.2 µM | TGI [35]: 33.5 µM | TGI [36]: 29.8 µM | TGI [37]: 30.4 µM | TGI [38]: 52 µM | TGI [39]: 36.4 µM

CC(=O)NC(CCCCN)C(=O)NCc1ccccc1 (stereo not drawn)
TGI [1]: > 100 µM | TGI [40]: > 100 µM | TGI [2]: > 100 µM | TGI [41]: > 100 µM | TGI [3]: > 100 µM | TGI [4]: > 100 µM | TGI [5]: > 100 µM | TGI [6]: > 100 µM | TGI [7]: > 100 µM | TGI [42]: > 100 µM | TGI [8]: > 100 µM | TGI [9]: > 100 µM | TGI [43]: > 100 µM | TGI [10]: > 100 µM | TGI [11]: > 100 µM | TGI [12]: > 100 µM | TGI [44]: > 100 µM | TGI [14]: > 100 µM | TGI [15]: > 100 µM | TGI [16]: > 100 µM | TGI [45]: > 100 µM | TGI [46]: > 100 µM | TGI [17]: > 100 µM | TGI [18]: > 100 µM | TGI [19]: > 100 µM | TGI [20]: > 100 µM | TGI [47]: > 100 µM | TGI [48]: > 100 µM | TGI [21]: > 100 µM | TGI [22]: > 100 µM | TGI [23]: > 100 µM | TGI [24]: > 100 µM | TGI [49]: > 100 µM | TGI [25]: > 100 µM | TGI [26]: > 100 µM | TGI [27]: > 100 µM | TGI [28]: > 100 µM | TGI [50]: > 100 µM | TGI [51]: > 100 µM | TGI [52]: > 100 µM | TGI [30]: > 100 µM | TGI [31]: > 100 µM | TGI [32]: > 100 µM | TGI [33]: > 100 µM | TGI [34]: > 100 µM | TGI [53]: > 100 µM | TGI [35]: > 100 µM | TGI [36]: > 100 µM | TGI [37]: > 100 µM | TGI [38]: > 100 µM | TGI [54]: > 100 µM | TGI [55]: > 100 µM | TGI [39]: > 100 µM | TGI [56]: > 100 µM
